Patent US20200131196A1 (Mount Tam Therapeutics, Inc., priority 2017, published 2020)
Read-outs that look alike come from different tables or passages of the source.

What was measured:
[1] = tested on: 786-O; experiment: OncoPanel cell proliferation assay, 786-O; type: cell-based, human; conditions: Homo sapiens, 786-0; 786-O; read-out: Cell Count IC50
Description: (§1) Cells were grown in RPMI 1640, 10% FBS, 2 mM L-alanyl-L-glutamine, 1 mM Na pyruvate, or a special medium. Cells were seeded into 384-well plates and incubated in a humidified atmosphere of 5% CO2 at 37° C. Compounds were added the day following cell seeding. At the same time, a time zero untreated cell plate was generated. After a 3-day incubation period, cells were fixed and stained to allow fluorescence imaging of nuclei. Compounds (1 mM stock solutions) were serially diluted in half-log steps from the highest test concentration ([…]), and assayed over 10 concentrations with a maximum assay concentration of 0.1% DMSO. Automated fluorescence microscopy was carried out using a Molecular Devices ImageXpress Micro XL high-content imager, and images were collected with a 4× objective. 16-bit TIFF images were acquired and analyzed with MetaXpress 5.1.0.41 software.
(§2) Cell proliferation was measured by the fluorescence intensity of an incorporated nuclear dye. The output is referred to as the relative cell count, where the measured nuclear intensity is transformed to percent of control (POC) using the following formula: […]
(§3) Cellular response parameters were calculated using nonlinear regression to a sigmoidal single-site dose response model:
(§4) EC50 is the test compound concentration at the curve inflection point or half the effective response (parameter C of the fitted curve solution). GI50 is the concentration needed to reduce the observed growth by half (midway between the curve maximum and the time zero value). “Cell Count Activity Area” is an estimate of the integrated area above the curve (Barretina, et al. The Cancer Cell Line Encyclopedia enables predictive modelling of anticancer drug sensitivity. Nature 483: 603-607). […] In rare instances, values <0 or >10 may be observed. […] Curve-fitting, calculations, and report generation was performed using a custom data reduction engine and MathIQ based software (AIM).

[2] = tested on: NCI-H510A; experiment: OncoPanel cell proliferation assay, NCI-H510A; type: cell-based, human
Description: as §1, §2, §3, §4

[3] = tested on: SNU-C2B; experiment: OncoPanel cell proliferation assay, SNU-C2B; type: cell-based, human
Description: as §1, §2, §3, §4

[4] = tested on: Hs 729; experiment: OncoPanel cell proliferation assay, Hs 729; type: cell-based, human
Description: as §1, §2, §3, §4

[5] = tested on: U-87 MG; experiment: OncoPanel cell proliferation assay, U-87 MG; type: cell-based, human
Description: as §1, §2, §3, §4

[6] = tested on: SK-N-AS; experiment: OncoPanel cell proliferation assay, SK-N-AS; type: cell-based, human
Description: as §1, §2, §3, §4

[7] = tested on: SK-NEP-1; experiment: OncoPanel cell proliferation assay, SK-NEP-1
Description: Cells were seeded into 384-well plates and incubated in a humidified atmosphere of 5% CO2 at 37° C. Compounds were added the day following cell seeding. At the same time, a time zero untreated cell plate was generated. After a 3-day incubation period, cells were fixed and stained to allow fluorescence imaging of nuclei. Compounds (1 mM stock solutions) were serially diluted in half-log steps from the highest test concentration (1 micromol), and assayed over 10 concentrations with a maximum assay concentration of 0.1% DMSO. Automated fluorescence microscopy was carried out using a Molecular Devices ImageXpress Micro XL high-content imager, and images were collected with a 4× objective. 16-bit TIFF images were acquired and analyzed with MetaXpress 5.1.0.41 software.
GI50 is the concentration needed to reduce the observed growth by half (midway between the curve maximum and the time zero value). […] In rare instances, values <0 or >10 may be observed. […] Curve-fitting, calculations, and report generation was performed using a custom data reduction engine and MathIQ based software (AIM).

[8] = tested on: T24; experiment: OncoPanel cell proliferation assay, T24; type: cell-based, human
Description: as §1, §2, §3, §4

[9] = Homo sapiens, read-out: Cell Count EC50
[10] = Homo sapiens, read-out: Cell Count GI50
[11] = Homo sapiens, read-out: Cell Count IC50

CO[C@H]1C[C@@H]2CC[C@@H](C)[C@@](O)(O2)C(=O)C(=O)N2CCCC[C@H]2C(=O)O[C@H]([C@H](C)C[C@H]2C[C@H]3C[C@@H]2C[C@@H]3O)CC(=O)[C@H](C)/C=C(\C)[C@@H](O)[C@@H](OC)C(=O)[C@H](C)C[C@H](C)/C=C/C=C/C=C/1C [Formula II, C37-[(1R,2S,4R,5S)-5-hyhroxybicyclo[2.2.1]heptane] rapamycin]
IC50 [1]: 16.2 nM | Cell Count Activity Area [2]: 2.57 | Relative cell count (%) Mean ([2]; 1.00E+00 microM): 91.4% | Relative cell count (%) Mean ([2]; 1.00E-01 microM): 84.2% | Relative cell count (%) Mean ([2]; 1.00E-02 microM): 99.6% | Relative cell count (%) Mean ([2]; 1.00E-03 microM): 92.3% | Relative cell count (%) Mean ([2]; 1.01E-04 microM): 102.2% | Relative cell count (%) Mean ([2]; 3.16E-01 microM): 88.0% | Relative cell count (%) Mean ([2]; 3.17E-02 microM): 90.4% | Relative cell count (%) Mean ([2]; 3.17E-03 microM): 95.4% | Relative cell count (%) Mean ([2]; 3.18E-04 microM): 101.6% | Relative cell count (%) Mean ([2]; 3.18E-05 microM): 129.0% | EC50 ([2]; Homo sapiens, NCl-H510A, Lung, Small cell lung cancer (SCLC), summary Table 5, read-out: EC50): 0.072 nM | EC50 [2, 9]: 0.0717 nM | GI50 [2, 10]: > 1000 nM | IC50 [2, 11]: > 1000 nM | Cell Count Activity Area [3]: 2.73 | Relative cell count (%) Mean ([3]; 1.00E+00 microM): 74.9% | Relative cell count (%) Mean ([3]; 1.00E-01 microM): 76.2% | Relative cell count (%) Mean ([3]; 1.00E-02 microM): 79.1% | Relative cell count (%) Mean ([3]; 1.00E-03 microM): 74.1% | Relative cell count (%) Mean ([3]; 1.01E-04 microM): 97.1% | Relative cell count (%) Mean ([3]; 3.16E-01 microM): 66.6% | Relative cell count (%) Mean ([3]; 3.17E-02 microM): 69.5% | Relative cell count (%) Mean ([3]; 3.17E-03 microM): 76.3% | Relative cell count (%) Mean ([3]; 3.18E-04 microM): 88.6% | Relative cell count (%) Mean ([3]; 3.18E-05 microM): 106.6% | EC50 [3, 9]: 0.179 nM | GI50 [3, 10]: 3.16 nM | IC50 [3, 11]: > 1000 nM | Cell Count Activity Area [4]: 0.91 | Relative cell count (%) Mean ([4]; 1.00E+00 microM): 73.3% | Relative cell count (%) Mean ([4]; 1.00E-01 microM): 81.0% | Relative cell count (%) Mean ([4]; 1.00E-02 microM): 91.1% | Relative cell count (%) Mean ([4]; 1.00E-03 microM): 97.1% | Relative cell count (%) Mean ([4]; 1.01E-04 microM): 105.0% | Relative cell count (%) Mean ([4]; 3.16E-01 microM): 74.8% | Relative cell count (%) Mean ([4]; 3.17E-02 microM): 79.3% | Relative cell count (%) Mean ([4]; 3.17E-03 microM): 98.0% | Relative cell count (%) Mean ([4]; 3.18E-04 microM): 93.3% | Relative cell count (%) Mean ([4]; 3.18E-05 microM): 93.2% | EC50 [4, 9]: > 1000 nM | GI50 [4, 10]: 101 nM | IC50 [4, 11]: > 1000 nM | Cell Count Activity Area [5]: 3.76 | Relative cell count (%) Mean ([5]; 1.00E+00 microM): 48.9% | Relative cell count (%) Mean ([5]; 1.00E-01 microM): 52.1% | Relative cell count (%) Mean ([5]; 1.00E-02 microM): 70.4% | Relative cell count (%) Mean ([5]; 1.00E-03 microM): 78.8% | Relative cell count (%) Mean ([5]; 1.01E-04 microM): 101.1% | Relative cell count (%) Mean ([5]; 3.16E-01 microM): 50.7% | Relative cell count (%) Mean ([5]; 3.17E-02 microM): 60.4% | Relative cell count (%) Mean ([5]; 3.17E-03 microM): 71.4% | Relative cell count (%) Mean ([5]; 3.18E-04 microM): 85.3% | Relative cell count (%) Mean ([5]; 3.18E-05 microM): 108.2% | EC50 [5, 9]: 0.996 nM | GI50 [5, 10]: 2.17 nM | IC50 [5, 11]: 34.1 nM | Cell Count Activity Area [6]: 3.12 | Relative cell count (%) Mean ([6]; 1.00E+00 microM): 49.7% | Relative cell count (%) Mean ([6]; 1.00E-01 microM): 54.0% | Relative cell count (%) Mean ([6]; 1.00E-02 microM): 55.3% | Relative cell count (%) Mean ([6]; 1.00E-03 microM): 77.8% | Relative cell count (%) Mean ([6]; 1.01E-04 microM): 99.5% | Relative cell count (%) Mean ([6]; 3.16E-01 microM): 49.5% | Relative cell count (%) Mean ([6]; 3.17E-02 microM): 55.1% | Relative cell count (%) Mean ([6]; 3.17E-03 microM): 70.3% | Relative cell count (%) Mean ([6]; 3.18E-04 microM): 89.7% | Relative cell count (%) Mean ([6]; 3.18E-05 microM): 97.7% | EC50 [6, 9]: 1.41 nM | GI50 [6, 10]: 4.82 nM | IC50 [6, 11]: 422 nM | EC50 ([7]; Homo sapiens, SK-NEP-1, read-out: Cell Count EC50): 2.48 nM | GI50 ([7]; Homo sapiens, SK-NEP-1, read-out: Cell Count GI50): 3.27 nM | IC50 ([7]; Homo sapiens, SK-NEP-1, read-out: Cell Count IC50): 18.1 nM | Cell Count Activity Area ([7]; SK-NEP-1): 3.36 | Relative cell count (%) Mean ([7]; SK-NEP-1, 1.00E+00 microM): 41.8% | Relative cell count (%) Mean ([7]; SK-NEP-1, 1.00E-01 microM): 45.4% | Relative cell count (%) Mean ([7]; SK-NEP-1, 1.00E-02 microM): 59.8% | Relative cell count (%) Mean ([7]; SK-NEP-1, 1.00E-03 microM): 86.5% | Relative cell count (%) Mean ([7]; SK-NEP-1, 1.01E-04 microM): 106.4% | Relative cell count (%) Mean ([7]; SK-NEP-1, 3.16E-01 microM): 44.3% | Relative cell count (%) Mean ([7]; SK-NEP-1, 3.17E-02 microM): 49.3% | Relative cell count (%) Mean ([7]; SK-NEP-1, 3.17E-03 microM): 67.1% | Relative cell count (%) Mean ([7]; SK-NEP-1, 3.18E-04 microM): 94.6% | Relative cell count (%) Mean ([7]; SK-NEP-1, 3.18E-05 microM): 99.0% | Cell Count Activity Area [8]: 4.16 | Relative cell count (%) Mean ([8]; 1.00E+00 microM): 36.6% | Relative cell count (%) Mean ([8]; 1.00E-01 microM): 42.2% | Relative cell count (%) Mean ([8]; 1.00E-02 microM): 52.8% | Relative cell count (%) Mean ([8]; 1.00E-03 microM): 61.8% | Relative cell count (%) Mean ([8]; 1.01E-04 microM): 85.7% | Relative cell count (%) Mean ([8]; 3.16E-01 microM): 40.8% | Relative cell count (%) Mean ([8]; 3.17E-02 microM): 48.5% | Relative cell count (%) Mean ([8]; 3.17E-03 microM): 52.6% | Relative cell count (%) Mean ([8]; 3.18E-04 microM): 69.8% | Relative cell count (%) Mean ([8]; 3.18E-05 microM): 93.2% | EC50 ([8]; Homo sapiens, T-24, read-out: Cell Count EC50): 0.471 nM | GI50 ([8]; Homo sapiens, T-24, read-out: Cell Count GI50): 3.09 nM | IC50 ([8]; Homo sapiens, T-24, read-out: Cell Count IC50): 6.8 nM
